One data set has as its system MDA-MB-468. Kind of data set: Cell viability assay by WST-1 on MDA-MB-468. Conditions: 10 μM, two days, breast MDA-MB-468. Format: cell-based, human. Here is the method:
Three tumor cells were tested, i.e., HCT116 (colorectal cancer), AsPC-1 (pancreatic cancer) and MDA-MB-468 cell lines (breast cancer). Human colorectal carcinoma cell line HCT116 (catalog number: BCRC 60349, Bioresource Collection and Research Center (BCRC), Hsinchu City, Taiwan) was maintained in the culture medium: McCoy's 5a medium (catalog number: 16-600-082, Gibco, Waltham, Mass.) with 1.5 mM L-glutamine (Gibco) and 10% fetal bovine serum (FBS, Gibco). Human pancreatic adenocarcinoma cell line AsPC-1 (catalog number: BCRC 60494, BCRC) was maintained in the culture medium: RPMI 1640 medium (catalog number: 11875168, Gibco) with 2 mM L-glutamine, 4.5 g/L glucose (Gibco), 10 mM HEPES (Gibco), 1 mM sodium pyruvate (Gibco) and 10% fetal bovine serum. […]
For cell viability assay, tumor cells (1×10^5/mL) were suspended in the medium without testing drugs and then inoculated in 96-well plates (100 μL per well) for attachment first. […] Cell proliferation was quantified by using a Premix WST-1 Cell Proliferation Assay System (Takara, Japan). According to the manufacturer's protocol, cell proliferation was determined by measuring the optical density (OD) after the reaction for 3 hours by recording the absorbance at 450 nm using a plate reader (Multiskan Go, Thermo Fisher Scientific).
For orientation: Tetrazolium dyes change colour on reduction, which living cells bring about.

The next data set relates to HCT116. Kind of data set: Cell viability assay on HCT116. In kind it is cell-based, human. Conditions: 20 μM drug, normalized by blank control, three repeats.
Another data set has as its system shATG4B/HCT116. Kind of data set: Cell viability assay on shATG4B/HCT116 (ATG4B silencing strain). In kind it is cell-based, human.
Data set [1] has as its target T1, ATG4B (Homo sapiens, UniProt Q9Y4P1). Kind of data set: ATG4B enzyme activity assay by S-tag-based immunoblotting. Format: biochemical. Conditions: read-out: inhibition of ATG4B catalysis. The text has this: Protein expression and purification for the study of prediction of the allosteric sites in ATG4B Human ATG4B with N-terminal 6xHis-tag and human LC3B with both N-terminal 6xHis-tag and C-terminal S-tag were cloned into pETDuet-1 expression plasmids as previously described (Shu, C W et al., 2010, Autophagy 6, 936-947), subsequently transformed into E. coli BL21 (ECOS 21, Yeastern Biotech Co., FYE207-40VL). A single colony harboring the correctly in-frame inserted gene was inoculated into an overnight culture that was then diluted 100-fold in fresh Luria-Bertani broth with 50 μg/mL ampicillin for growing at 37° C. with 200 rpm agitation for 2 to 3 hours until the optical density of the culture at 600 nm reaches 0.4 (around 3×10^8 cells/mL). […]
The expression cell culture was harvested by 12,000×g centrifugation at 4° C. for 20 minutes, and the cell pellets of 1 liter broth were resuspended in a 10 mL lysis buffer (50 mM Tris-HCl, pH 7.4, 300 mM NaCl, 20 mM imidazole). […] The protein purity was verified >90% by Coomassie blue staining on SDS-PAGE, and the quantity was measured by bicinchoninic acid assay.
ATG4B enzyme activity assay was analyzed by immunoblotting. […] The intensities of remaining substrate LC3B after enzymatic cleavage were quantified by the software ImageJ.
(In general: Immunoblotting shows a protein as a band on a membrane.)

The subject of the next data set is shCtrl/HCT116. Kind of data set: Cell viability assay on shCtrl/HCT116 (control strain). Conditions: for reduced cell viability: HCT116 (FIG. 13A, shCtrl/HCT116). Format: cell-based, human.
In another data set the test system is AK4.4. Kind of data set: Cell viability assay (MTT) on AK4.4. To be noted: for IC50: Mus musculus.
Data set [2] has as its target T1, ATG4B. Kind of data set: In vitro cleavage assay of ATG4B catalytic activity (western blot of tagged LC3B). Format: biochemical.
Experimental: The reagents were incubated at 37° C. for 30 minutes and then subjected to western blotting. The intensity of the band in the gel was calculated by using Image Studio Lite from LI-COR Biosciences or ImageJ.
The full-length LC3B fusion protein was used as the negative control and as the positive control when also incubated with ATG4B (FIG. 22A). […] A peptide that can inhibit ATG4B activity will weaken the fluorescence signal produced by the cleaved PLA2.
The subject of the next data set is AsPC-1. Kind of data set: Cell viability assay (MTT) on AsPC-1.
Data set [3] relates to AK4.4 pancreatic ductal adenocarcinoma (PDAC) xenograft.
The subject of the next data set is LC3B-II. Kind of data set: Western blotting of LC3B-II in AK4.4 and AsPC-1 cells. Format: cell-based. Conditions: AK4.4 and AsPC-1, western blotting. The protocol: Cells were seeded in a 12-well plate (10^5 cells/well) and cultured in serum-free medium (SFM) with different concentrations of drugs for six hours. The plate was then washed with phosphate-buffered saline (PBS), and cells were lysed with 100 μL radioimmunoprecipitation assay buffer (RIPA buffer) for each well. The cell extracts were mixed with 4×dye (900 μL of 4×Laemmli sample buffer+100 μL of 2-mercaptoethanol) at 95° C. for ten minutes and separated by sodium dodecyl sulfate-polyacrylamide gel electrophoresis (SDS-PAGE). The fractions were then transferred to a polyvinylidene fluoride (PVDF) membrane and immersed in 5% nonfat milk at room temperature for one hour. Afterward, the transfer membrane was incubated with protein-specific primary antibodies at 4° C. overnight, washed by PBST (0.1% Tween 20 in PBS), and then incubated with horseradish peroxidase (HRP)-conjugated secondary antibodies at room temperature for one hour. The blots washed by PBST were then detected by enhanced chemiluminescence (ECL) for the quantification of proteins.

Data set [4] concerns the target LC3B substrate of the ATG4B activity reporter assays (cleavage releases PLA2), Q9GZQ8. Kind of data set: cell-based or functional assay.
[5] abbreviates: Vb concentration for 50% reduction of viability in combination with 0.50 μM Mx.

Values joined by “and” are separate entries in the source; they are usually repeats but may differ in a detail not shown here. Identical values can stand only once. Like-named read-outs stand apart in the source and are kept apart here. A value given as a limit tells only on which side of the number the result lay.

A word on the inhibition: it is the change of the read-out against control, counted positive when it falls. What is called IC50 is the point on the concentration scale where inhibition reaches its midpoint.

T1 sequence (Q9Y4P1 whole entry): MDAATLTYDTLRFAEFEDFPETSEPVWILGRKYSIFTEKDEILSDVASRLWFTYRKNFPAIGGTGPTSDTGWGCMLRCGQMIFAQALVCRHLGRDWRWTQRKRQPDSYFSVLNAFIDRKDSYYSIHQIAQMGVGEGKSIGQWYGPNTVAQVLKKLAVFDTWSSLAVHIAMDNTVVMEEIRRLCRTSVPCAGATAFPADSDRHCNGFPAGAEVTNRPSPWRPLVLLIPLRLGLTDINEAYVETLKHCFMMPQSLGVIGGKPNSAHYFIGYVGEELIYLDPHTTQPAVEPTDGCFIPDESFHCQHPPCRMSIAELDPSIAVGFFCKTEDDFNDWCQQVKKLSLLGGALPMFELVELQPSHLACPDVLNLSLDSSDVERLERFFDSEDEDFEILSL

As to `CC1=C(/C=C/C(C)=C/C=C/C(C)=C/C(=O)Nc2ccc(O)cc2)C(C)(C)CCC1` [Fenretinide], in the data set on MDA-MB-468, the “suppression of tumor cell growth” value is recorded as “seems to be a better breast cancer inhibitor”.

As for `CO/N=C1\C[C@]2(C[C@@H]3C[C@@H](C/C=C(\C)C[C@@H](C)/C=C/C=C4\CO[C@@H]5[C@H](O)C(C)=C[C@@H](C(=O)O3)[C@]45O)O2)O[C@H](/C(C)=C/C(C)C)[C@H]1C` [Moxidectin], the viability at 20 µM came out at 2% in the data set on HCT116 (Homo sapiens, HCT-116, remaining viability, read-out: HCT116 Cell Viability); 1% in the data set with shATG4B/HCT116 (Homo sapiens, HCT-116, remaining viability, 20 μM drug, S strain, read-out: shATG4B/HCT116 Cell Viability); 1% in the data set with shCtrl/HCT116 (Homo sapiens, HCT-116, remaining viability, 20 μM drug, C strain, read-out: shCtrl/HCT116 Cell Viability); 8% in the data set on AsPC-1 (Homo sapiens, ASPC1, read-out: AsPC-1 Cell Viability, remaining viability, 20 μM drug, normalized by blank control, three repeats). For the same molecule, the “HCT116 Cell Viability” value in the data set on HCT116 (remaining viability) came to 1.7 ± 0.1%. In the data set with shATG4B/HCT116 (remaining viability, 20 μM drug, S strain), the “shATG4B/HCT116 Cell Viability” value amounted to 0.9 ± 0.1%. Also, the inhibition at 10 µM was found to be 36% on ATG4B [1] (10 μM) and 38% on ATG4B [2] (10 μM, read-out: inhibition on ATG4B's catalytic activity). Also, the inhibition at 20 µM on ATG4B [1] (20 μM) is over 80%. Moreover, the IC50 is 1.07 µM in the data set with AK4.4 (read-out: IC50, Mx, moxidectin alone, AK4.4 (Table 12)); 0.87 µM in the data set on AK4.4 (read-out: IC50, Mx, moxidectin alone, AK4.4 (Table 14)); 1.38 µM in the data set with AsPC-1 (Homo sapiens, ASPC1, read-out: IC50, Mx, moxidectin alone, AsPC-1 (Table 13)); 1.24 µM with AsPC-1 (Homo sapiens, ASPC1, read-out: IC50, Mx, moxidectin alone, AsPC-1 (Table 15)). In addition, the “CMx, 50” value was 0.50 µM and 1.00 µM with AK4.4 (Mx concentration in combination with Tc for a 50% reduction of the cell viability, listed as Mx); 0.50 µM in the data set with AK4.4 (Mx concentration in combination with Vb for a 50% reduction of the cell viability); 0.50 µM and 1.00 µM in the data set on AsPC-1 (Mx concentration in combination with Vb for a 50% reduction of the cell viability, listed as Mx). In addition, in the data set with AsPC-1 (remaining viability, 20 μM drug, normalized by blank control, three repeats), the “AsPC-1 Cell Viability” value is recorded as 7.8 ± 0.8%.

For `CCC1=C[C@@H]2CN(C1)Cc1c([nH]c3ccccc13)[C@@](C(=O)OC)(c1cc3c(cc1OC)N(C)[C@H]1[C@@](O)(C(=O)OC)[C@H](OC(C)=O)[C@]4(CC)C=CCN5CC[C@]31[C@@H]54)C2` [Vinorelbine], in data set [3] (20 mg/kg, day 16), the “tumor size compared to the control group” value amounted to 70%. Moreover, in [3] (dose of 10 mg/kg, days 3, 5, 7, 10, 12, 14), the “tumor size measured on day 16 versus control group” value is given as “less than half of the tumor size in the control group”. The reduced cell viability with shATG4B/HCT116 was 37% and 43% and 54%; with shCtrl/HCT116 (4 μM) it was 55%; in the data set on shCtrl/HCT116 (10 μM), 63%; with shCtrl/HCT116 (20 μM), 68%; in the data set on AK4.4 (AK4.4, 5 μM), 62%; with AK4.4 (AK4.4, 10 μM), 51%. Further, the reduced cell viability was 24% with AK4.4 (AK4.4, 20 μM); 68% in the data set on AsPC-1 (AsPC-1, 5 μM); 61% in the data set on AsPC-1 (AsPC-1, 10 μM); 46% in the data set with AsPC-1 (AsPC-1, 20 μM). In addition, in the data set on LC3B-II, the “abundance of LC3B-II in cells” value is “accumulation of LC3B-II”. Besides, the IC50 with AK4.4 (read-out: IC50, Vb, vinorelbine alone, AK4.4 (Table 8)) worked out at 10.4 µM; in the data set on AK4.4 (read-out: IC50, Vb, vinorelbine alone, AK4.4 (Table 14)), 7.19 µM; with AsPC-1 (Homo sapiens, ASPC1, read-out: IC50, Vb, vinorelbine alone, AsPC-1 (Table 9)) it was 17.4 µM; in the data set with AsPC-1 (Homo sapiens, ASPC1, read-out: IC50, Vb, vinorelbine alone, AsPC-1 (Table 15)) it was 33.1 µM. Besides, the “CVb, 50” value in the data set with AK4.4 (setting [5]) stood at 3.91 µM; in the data set on AsPC-1 (setting [5]), 18.94 µM; in the data set with AsPC-1 (Vb concentration for 50% reduction of viability in combination with 1.00 μM Mx) it was 9.05 µM. The “reduction of the ATG4B activity on LC3B catalysis” value at ATG4B [2] (10 μM vinorelbine, FIG. 4B) was determined as 42%. For the same molecule, the inhibition at 10 µM at ATG4B [2] (read-out: inhibition of ATG4B catalysis) amounted to 58%. Besides, the viability at 5 µM with AsPC-1 (Homo sapiens, ASPC1, read-out: cell viability, AsPC-1, 5 μM vinorelbine alone) is 68%. In addition, the viability at 10 µM in the data set with AsPC-1 (Homo sapiens, ASPC1, read-out: cell viability, AsPC-1, 10 μM vinorelbine alone) came out at 61%. Also, in the data set on AsPC-1 (Homo sapiens, ASPC1, read-out: cell viability, AsPC-1, 20 μM vinorelbine alone), the viability at 20 µM was found to be 46%.

Take Ac-YDTLRFAEF-NH2 [N-term-9 (Ac-…-NH2)]: the inhibition to ATG4B activity (ATG4B activity reporter assays) in data set [4] was determined as 25%.

(Values after patent US20230187019A1, “METHOD FOR DETERMINING A DRUG COMBINATION VIA A BLOCKING MODEL OF A MULTI-SITE-TARGETED PROTEIN AND APPLICATIONS THEREOF” (National Tsing Hua University, priority 2021, published 2023).)
